The results in this text go back to paper PMC6278366, “Synthesis and Evaluation of Anticancer Activities of Novel C-28 Guanidine-Functionalized Triterpene Acid Derivatives” (Molecules, 2018).

SMILES strings stand for the structures. Structures can show the parent of a compound that is named as a salt.

For test [1], the system named is Jurkat (T-lymphoblastic leukemia) cells. In words: cells. Type of test: cell-based. The settings on record: Homo sapiens, Jurkat, mean ± SE, at least three experiments in duplicate; viable cells; read-out: IC50 Jurkat. An outline of the steps: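 Suspension lines in RPMI 1640 with 10% FBS at 37 °C, 5% CO2, treated with compounds at 1, 5, 10, 15, 30 and 60 μM. Live/dead status by 7-AAD staining (15 min, room temperature, dark) read on flow cytometer, 488 nm excitation, 675/30 nm emission.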

The subject of test [2] is HeLa (cervical cancer) cells. Put plainly: Cytotoxicity assay (7-AAD viability, flow cytometry), HeLa. The format is cell-based, human. The settings on record: Homo sapiens, HeLa, mean ± SE, at least three experiments in duplicate; viable cells. Put shortly: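 Adherent HeLa, HEK293 and normal human fibroblasts (5 × 10⁴/well, DMEM with 10% FBS, 37 °C, 5% CO2) were treated with compounds at 1, 5, 10, 15, 30 and 60 μM. Viability was read as 7-AAD exclusion by flow cytometry after 15 min staining.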

In another test the test system is Jurkat cells. In words: Annexin V/7-AAD apoptosis assay by flow cytometry. The format is cell-based, human. The settings on record: 48 h. Here is the method:
Apoptosis was determined by flow cytometric analysis of Annexin V and 7-aminoactinomycin D staining. Briefly, 200 μL of Guava Nexin reagent (Millipore, Bedford, MA, USA) was added to 5 × 10^5 cells in 200 μL, and the cells were incubated with the reagent for 20 min at room temperature in the dark. […] At the end of incubation, the cells were analyzed on NovoCyteTM 2000 FlowCytometry System (ACEA). Different states of cell death were defined as follows: normal cells are localized in the lower-left quadrant (Annexin V^−/PI^−); early apoptotic cells are in the lower-right quadrant (Annexin V^+/PI^−); late apoptotic cells and necrotic cells are in the upper-right quadrant (Annexin V^+/PI^+); and necrotic cells are in the upper-left quadrant (Annexin V^−/PI^+).
Figure 2 AnnexinV/7-AAD staining upon induction of apoptosis in Jurkat cells. […] Then, the cells were harvested, stained with Annexin V/7-AAD and analyzed by flow cytometry. The experiments were performed three times, and the results of the representative experiments are shown. The first cytogram represents an untreated cell sample (A); after incubation with dihydrobetulinic acid for 24 h (B) and for 48 h (C); after incubation with compound 15 for 24 h (D) and for 48 h (E); after incubation with compound 15c for 24 h (F) and for 48 h (G); after incubation with compound 18c for 24 h (H) and for 48 h (I); after incubation with compound 20c for 24 h (J) and for 48 h (K). Q7-1, necrotic cells; Q7-2, late apoptotic cells; Q7-3, living cells; Q7-4, early apoptotic cells. TEXT PRINTED IN THE PICTURE: (B) Dihydro BA: Q7-1 0.96% (59 μM); Q7-2 12.11% (59 μM); Q7-3 80.09% (59 μM); Q7-4 6.84% (59 μM) | (C) Dihydro BA: Q7-1 2.34% (59 μM); Q7-2 20.53% (59 μM); Q7-3 73.11% (59 μM); Q7-4 4.02% (59 μM) | (D) Compound 15: Q7-1 3.08% (4 μM); Q7-2 2.24% (4 μM); Q7-3 92.34% (4 μM); Q7-4 2.34% (4 μM) | (E) Compound 15: Q7-1 5.53% (4 μM); Q7-2 91.79% (4 μM); Q7-3 0.58% (4 μM); Q7-4 2.10% (4 μM) | (F) Compound 15c: Q7-1 1.51% (4 μM); Q7-2 2.64% (4 μM); Q7-3 84.92% (4 μM); Q7-4 10.93% (4 μM) | (G) Compound 15c: Q7-1 21.72% (4 μM); Q7-2 16.54% (4 μM); Q7-3 54.49% (4 μM); Q7-4 7.25% (4 μM) | (H) Compound 18c: Q7-1 1.48% (4 μM); Q7-2 3.70% (4 μM); Q7-3 91.14% (4 μM); Q7-4 3.67% (4 μM) | (I) Compound 18c: Q7-1 20.73% (4 μM); Q7-2 14.32% (4 μM); Q7-3 58.16% (4 μM); Q7-4 6.79% (4 μM) | (J) Compound 20c: Q7-1 3.78% (8 μM); Q7-2 1.72% (8 μM); Q7-3 92.26% (8 μM); Q7-4 2.24% (8 μM) | (K) Compound 20c: Q7-1 6.09% (8 μM); Q7-2 7.35% (8 μM); Q7-3 78.36% (8 μM); Q7-4 8.20% (8 μM) DOUBTS OF THE COPYIST ABOUT THIS PICTURE: Panel A (Control, untreated cells: Q7-1 3.75%, Q7-2 0.00%, Q7-3 96.24%, Q7-4 0.01%) left out of lines because it is not a substance / Dihydro BA panel B, Q7-3: 80.09% partly overlaid by plot points, 80.09 or 80.03 / Dihydro BA panel C, Q7-3: 73.11% partly overlaid by plot points / Compound 18c panel I, Q7-3: 58.16% small print, 58.16 or 58.18 / Compound 15 panel E, Q7-3: 0.58% small print, 0.58 or 0.56

Setting [3] is: at IC50 concentration (59 μM Dihydro BA; 4 μM 15, 15c, 18c; 8 μM 20c).

In the case of `CC(=O)O[C@H]1CC[C@@]2(C)C(CC[C@]3(C)C2CCC2C4C(C(C)C)CC[C@]4(C(=O)OCC(CO)(CO)NC(=N)N)CC[C@]23C)C1(C)C` (stereo partly drawn) [Compound 15c, 3β-[2-Guanidine-3-hydroxy-2-(hydroxymethyl)propyl]-3-O-acetyl-lupane-28-oate hydrochloride], the IC50 in test [1] was 3.1 ± 0.41 µM. The same molecule displayed an IC50 in test [2] of 14 ± 0.31 µM. Also, in the test with Jurkat cells (setting [3]), the “early apoptotic cells (Q7-4)” value amounted to 7.2%, the “late apoptotic cells (Q7-2)” value is given as 16.5%, the “living (vital) cells (Q7-3)” value came out at 54.5% and the “necrotic cells (Q7-1)” value was 21.7%. Besides, the “total number of apoptotic cells (early + late)” value in the test with Jurkat cells (at IC50 concentration (59 μM Dihydro BA; 4 μM 15c; 8 μM 20c)) is recorded as 23.7%.
As to `CC(=O)O[C@H]1CC[C@@]2(C)C(CC[C@]3(C)C2CCC2C4C(C(C)C)CC[C@]4(C(=O)OCC(N)(CO)CO)CC[C@]23C)C1(C)C` (stereo partly drawn) [Compound 15, 3β-[2-Amino-3-hydroxy-2-(hydroxymethyl)propyl]-3-O-acetyl-lupane-28-oate], the IC50 in test [1] came out at 3.3 ± 0.11 µM; in test [2] it was 19 ± 0.49 µM. The “late apoptotic cells (Q7-2)” value in the test on Jurkat cells (setting [3]) was 91.7%.
